Assay results published in publication PMC3885398, “Evaluation of the Antitumor Effects of BPR1J-340, a Potent and Selective FLT3 Inhibitor, Alone or in Combination with an HDAC Inhibitor, Vorinostat, in AML Cancer” (PLoS ONE, 2014).
Values joined by “and” are separate entries in the source; they are usually repeats but may differ in a detail not shown here. Equal entries are not always repeated.

Key:
FLT3 D835Y = target: T1, FLT3 D835Y (Homo sapiens, UniProt P36888, D835Y); assay: Invitrogen SelectScreen kinase profiling / IC50; type: biochemical
T1 sequence (P36888 27-993 D835Y): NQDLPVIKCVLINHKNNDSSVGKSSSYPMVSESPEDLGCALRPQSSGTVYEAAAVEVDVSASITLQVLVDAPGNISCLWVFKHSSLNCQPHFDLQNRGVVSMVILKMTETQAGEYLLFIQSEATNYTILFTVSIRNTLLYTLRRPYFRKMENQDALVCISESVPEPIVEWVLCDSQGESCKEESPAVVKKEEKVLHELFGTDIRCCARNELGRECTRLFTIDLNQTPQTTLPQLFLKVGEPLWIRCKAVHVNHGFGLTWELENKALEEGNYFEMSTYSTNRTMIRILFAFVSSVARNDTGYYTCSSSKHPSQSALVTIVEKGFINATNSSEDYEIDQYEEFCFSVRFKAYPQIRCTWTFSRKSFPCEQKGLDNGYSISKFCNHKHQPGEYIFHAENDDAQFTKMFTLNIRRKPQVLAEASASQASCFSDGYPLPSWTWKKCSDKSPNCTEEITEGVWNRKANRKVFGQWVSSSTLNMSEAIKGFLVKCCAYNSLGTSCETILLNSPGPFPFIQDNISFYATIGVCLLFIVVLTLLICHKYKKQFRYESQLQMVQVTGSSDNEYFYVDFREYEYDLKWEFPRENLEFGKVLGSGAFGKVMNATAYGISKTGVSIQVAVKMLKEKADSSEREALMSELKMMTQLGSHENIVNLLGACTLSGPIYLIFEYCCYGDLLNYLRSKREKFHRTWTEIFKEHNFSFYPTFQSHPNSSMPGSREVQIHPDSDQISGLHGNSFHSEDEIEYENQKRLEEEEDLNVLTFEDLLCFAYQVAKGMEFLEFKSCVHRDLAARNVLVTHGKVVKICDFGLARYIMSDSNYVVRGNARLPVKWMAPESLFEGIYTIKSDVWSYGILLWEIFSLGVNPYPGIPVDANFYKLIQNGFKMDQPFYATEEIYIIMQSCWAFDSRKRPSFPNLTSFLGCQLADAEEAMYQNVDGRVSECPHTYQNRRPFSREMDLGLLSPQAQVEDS
Experimental: (§1) The FLT3 and VEGFR1/2 Kinase-Glo kinase assays were performed as reported by our earlier study. The VEGFR3 activity analysis was conducted using the same protocol described in the VEGFR1/2 assay. The kinase inhibition profiling and inhibitory activity of FLT3-D835Y, CSF1R, and TRKA were determined by Invitrogen SelectScreen® kinase profiling service (Carlsbad, California, USA).
(§2) BPR1J-340, a urea-substituted 3-phenyl-1H-5-pyrazolylamine-based compound, was designed through chemical modification of sulfonamide series of derivatives (BPR1J-097 series) by a structure-activity relationship (SAR) study (Fig. 1), [32]. For kinase inhibition specificity screening, BPR1J-340 was tested against 59 protein kinases covering the major oncogenic kinases of human protein kinome. […] In addition, BPR1J-340 inhibited TRKA, which is associated with the growth and metastasis of breast cancers, with an IC50 value of 8 nM. Given the high similarity of the ATP binding pockets of FLT3 and the Aurora kinases, the inhibitory activity toward Aurora A and Aurora B were measured. […] Taken together, BPRJ-340 is a selective kinase inhibitor with in vitro activity against FLT3, VEGFR2, VEGFR3 and TRKA receptor tyrosine kinases.

CSF1R (FMS) = CSF1R (FMS) (Homo sapiens, UniProt P07333); assay: Invitrogen SelectScreen kinase profiling / IC50; type: biochemical
CSF1R (FMS), sequence (P07333 20-972): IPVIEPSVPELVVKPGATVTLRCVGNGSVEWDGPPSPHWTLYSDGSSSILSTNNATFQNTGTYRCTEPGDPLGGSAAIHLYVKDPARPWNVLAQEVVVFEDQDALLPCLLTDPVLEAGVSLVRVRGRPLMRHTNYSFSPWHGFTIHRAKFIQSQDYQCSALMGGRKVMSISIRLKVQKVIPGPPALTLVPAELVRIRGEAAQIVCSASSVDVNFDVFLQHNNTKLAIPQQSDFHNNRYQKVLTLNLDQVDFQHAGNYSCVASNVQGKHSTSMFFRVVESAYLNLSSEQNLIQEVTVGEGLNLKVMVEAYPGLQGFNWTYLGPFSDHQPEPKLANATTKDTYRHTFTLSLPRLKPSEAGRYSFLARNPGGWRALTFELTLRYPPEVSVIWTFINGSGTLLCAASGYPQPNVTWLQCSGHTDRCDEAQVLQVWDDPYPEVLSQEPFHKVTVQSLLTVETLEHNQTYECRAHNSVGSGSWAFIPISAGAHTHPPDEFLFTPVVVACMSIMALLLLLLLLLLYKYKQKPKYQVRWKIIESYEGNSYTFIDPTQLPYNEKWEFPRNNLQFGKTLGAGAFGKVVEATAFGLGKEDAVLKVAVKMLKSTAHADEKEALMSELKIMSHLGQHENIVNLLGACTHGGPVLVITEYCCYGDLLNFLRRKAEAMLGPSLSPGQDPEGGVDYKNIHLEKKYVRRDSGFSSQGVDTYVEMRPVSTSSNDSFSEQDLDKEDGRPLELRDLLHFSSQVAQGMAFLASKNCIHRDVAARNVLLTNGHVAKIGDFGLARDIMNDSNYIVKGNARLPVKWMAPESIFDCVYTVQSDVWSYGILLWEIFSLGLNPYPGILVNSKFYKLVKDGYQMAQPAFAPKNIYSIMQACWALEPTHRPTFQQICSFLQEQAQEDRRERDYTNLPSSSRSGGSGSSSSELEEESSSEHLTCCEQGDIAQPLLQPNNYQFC
Experimental: as §1, §2

NTRK1 (TRKA) = NTRK1 (TRKA) (Homo sapiens, UniProt P04629); assay: Invitrogen SelectScreen kinase profiling / IC50; type: biochemical
NTRK1 (TRKA), sequence (P04629 33-796): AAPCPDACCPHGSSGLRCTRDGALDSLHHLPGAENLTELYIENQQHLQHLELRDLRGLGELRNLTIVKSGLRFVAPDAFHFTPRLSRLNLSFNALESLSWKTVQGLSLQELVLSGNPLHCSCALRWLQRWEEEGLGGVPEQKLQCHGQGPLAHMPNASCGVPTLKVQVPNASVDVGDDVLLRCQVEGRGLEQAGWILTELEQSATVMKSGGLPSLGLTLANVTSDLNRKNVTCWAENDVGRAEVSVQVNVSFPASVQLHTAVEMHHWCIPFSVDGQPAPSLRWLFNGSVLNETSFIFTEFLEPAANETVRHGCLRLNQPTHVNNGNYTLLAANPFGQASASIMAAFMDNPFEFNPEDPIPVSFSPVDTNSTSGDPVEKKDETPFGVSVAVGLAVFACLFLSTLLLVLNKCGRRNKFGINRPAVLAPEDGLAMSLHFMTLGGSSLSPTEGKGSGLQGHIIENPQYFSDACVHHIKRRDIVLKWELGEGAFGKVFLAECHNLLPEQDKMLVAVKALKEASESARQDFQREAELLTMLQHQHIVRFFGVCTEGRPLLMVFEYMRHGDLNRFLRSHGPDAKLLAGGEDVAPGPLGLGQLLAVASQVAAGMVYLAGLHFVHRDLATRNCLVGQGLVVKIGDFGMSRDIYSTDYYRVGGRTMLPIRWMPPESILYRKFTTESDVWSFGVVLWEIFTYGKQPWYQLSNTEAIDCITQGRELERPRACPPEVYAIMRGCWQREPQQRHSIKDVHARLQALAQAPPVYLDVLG
Experimental: as §1, §2

[1] = Pharmacokinetic analysis in rats; type: in vivo, Sprague-Dawley rats
Experimental: The uses of animals were approved by The Institutional Care and Use Committee of the National Health Research Institutes. Briefly, male Sprague-Dawley rats weighing 300–400 g each were obtained from BioLASCO, Taiwan Co., Ltd., Ilan, Taiwan. One day prior dosing, rats were surgically prepared with a jugular-vein cannula and fasted overnight (∼18–20 hr). Water was available ad libitum. Food was provided at 4 hours after dosing. Single 1.5 mg/kg intravenous dose of BPR1J-340, as a PEG400/water (80/20, v/v) solution, was separately administered to groups of 3 rats each via the jugular-vein cannula. At 0 (prior to dosing), 2, 5, 15 and 30 min. and at 1, 2, 4, 6, 8 and 24 hr after dosing, a blood sample was collected. Plasma was separated from the blood by centrifugation (14,000 g for 15 min at 4°C in a Beckman Model AllegraTM 6R centrifuge) and stored in a freezer (−20°C) until analysis. All plasma samples were analyzed by LC-MS/MS. Plasma concentration data were analyzed with non-compartmental method for pharmacokinetic determination.

## CCc1cc(NC(=O)NCc2ccc(-c3cc(NC(=O)c4ccc(CN5CCN(C)CC5)cc4)[nH]n3)cc2)no1 [BPR1J-340, N1-(3-4-[([(5-ethyl-3-isoxazolyl)amino]carbonylamino)methyl]phenyl-1H-5-pyrazolyl)-4-[(4-methylpiperazino)methyl]benzamide]
FLT3 D835Y; FLT3-D835Y, Invitrogen SelectScreen kinase assay
  IC50: 0.019 µM
FLT3 D835Y; FLT3 D835Y, 100 nM
  inhibition at 0.1 µM: 78%
CSF1R (FMS); 100 nM
  inhibition at 0.1 µM: 73%
CSF1R (FMS); Invitrogen SelectScreen kinase assay
  IC50: 0.078 µM
NTRK1 (TRKA); NTRK1 (TRKA), 100 nM
  inhibition at 0.1 µM: 89%
NTRK1 (TRKA); TRKA, Invitrogen SelectScreen kinase assay
  IC50: 0.008 µM
[1]; Rat IV 1.5 mg/kg, at 2 min after dosing, 1.5 mg/kg
  maximum plasma concentration: 7.9 µM and 4,296 ng/mL
[1]; Rat IV 1.5 mg/kg, for 6 hours
  plasma concentration maintained for 6 hours: exceeded 80 ng/mL
[1]; Rat IV, dose 1.5 mg/kg, listed as BRP1J-340, 1.5 mg/kg
  T1/2: 8.8 ± 0.6 h
[1]; Rat, single 1.5 mg/kg
  maximum achievable plasma concentration above the IC50 for FLT3-ITD inhibition: more than 272 fold
[1]; male, Sprague-Dawley, plasma, Rat IV 1.5 mg/kg, 24 hour after dosing, read-out: plasma concentration C24 hour
  concentration at 24 h: 9.9 ng/mL and 18 nM
[1]; male, Sprague-Dawley, plasma, Rat IV, dose 1.5 mg/kg
  clearance: 1.22 ± 0.312 L/h/kg
[1]; male, Sprague-Dawley, plasma, Rat IV, dose 1.5 mg/kg, read-out: AUC(0–24)
  AUC(0-t): 1.13 ± 0.26 µg·h/mL
[1]; male, Sprague-Dawley, plasma, Rat IV, dose 1.5 mg/kg, read-out: Vss
  Vd: 10.3 ± 2.5 L/kg
[1]; male, Sprague-Dawley, rat, plasma, iv, 1.5 mg/kg, Rat IV
  half-life: ~8.8 h
